In paper PMC11284790, “Targeting Myeloperoxidase Ameliorates Gouty Arthritis: A Virtual Screening Success Story” (Journal of Medicinal Chemistry, 2024):
Like-named read-outs stand apart in the source and are kept apart here.

Experiments:
[1] = molecular target: Human leukocyte MPO (Homo sapiens, UniProt P05164); test: MPO chlorinating activity assay (taurine chloramine/TMB); assay type: biochemical; set-up: Human leukocyte MPO (EC 1.7.1.11) was purchased from Planta Natural Products; purchased Planta Natural Products (Vienna, Austria); host or cells: human leukocytes; details: for IC50: pH 7.4
Description: Chlorinating activity was carried out in phosphate buffer (20 mM, pH 7.4). Compounds (20 μM) were dissolved in 0.03% DMSO, MPO (10 nM), diethylenetriaminepentaacetic acid (100 μM), cetyltrimethylammonium chloride (0.03%), NaCl (140 mM), and taurine (5 mM).[31] This mixture was incubated at 37 °C for 15 min before adding 40 μM hydrogen peroxide. The reaction ran for 8 min and was then stopped by catalase (20 μg/mL). Oxidation of TMB (2 mM) (3,3,5,5-tetramethylbenzidine) by taurine chloroamine catalyzed by iodide (100 μM) was quantified at 650 nm.[33] Results were expressed as a percentage of the control (vehicle). IC50 was calculated by nonlinear regression using the Hill equation present in GraphPad Prism 5 software.

[2] = tested on: human peripheral blood neutrophils; test: Cellular production of HOCl, PMA-activated peripheral blood neutrophils; assay type: cell-based; details: 20 μM compound, 100 nM PMA, 1 h
Description: Human neutrophils were obtained from healthy individuals as previously described.[24] The experiments were approved by the local ethics committee (CEPSH-ICB 1435/18).
(§1) Measurement of HOCl production by 1 × 10^6 dHL-60 or neutrophils was carried out in PBS (10 mM Na2HPO4, 2 mM KH2PO4, 0.5 mM MgCl2, 1 mM CaCl2, 140 mM NaCl, 5.5 mM dextrose, 100 μM diethylenetriaminepentaacetic acid, 5 mM taurine) in the presence of the compounds (20 μM in 0.3% DMSO) or 0.3% DMSO (control). Cells were activated with phorbol myristate acetate (100 nM) at 37 °C for 1 h. After incubation, cells were centrifuged at 1400 rpm for 10 min, and the supernatant was diluted threefold. Finally, 240 μL of this supernatant was added to 60 μL acetate buffer (400 mM, pH 5.4) containing NaI (100 μM) and TMB (2 mM in DMFO 10%). Taurine chloramine was quantified by TMB oxidation at 655 nm.[33] Inhibition of HOCl production was calculated as the percentage of the control (vehicle).

[3] = tested on: total peroxidase activity; test: Paw tissue total peroxidase activity after MSU; assay type: in vivo, male C57BL/6 mice; details: intraperitoneal pretreatment (RL6 30 mg/kg), tissue collected at 6 h
Description: After the assessment of paw edema was completed, the mice were immediately anesthetized by inhalation of 2% isoflurane mixture in oxygen (O2). Subsequently, the surface of the hind paws was collected for the measurement of total peroxidase activity, IL-6, and IL-1β. These tissue samples were then frozen using dry ice and stored at −80 °C until further analysis. The frozen tissues were later pulverized into a fine powder using liquid nitrogen and homogenized in a phosphate buffer (100 mM, pH 7.4). For the analysis of total peroxidase activity, a portion of this homogenate was mixed with hexadecyltrimethylammonium (1% HTAB, pH 6.0), vigorously vortexed, and sonicated. The resulting mixture was then centrifuged at 10,000g for 10 min, at 4 °C, and heated at 60 °C for 2 h. The sample of each supernatant was incubated with a solution containing 50 mM phosphate buffer, 0.164 mg/mL of o-dianisidine dihydrochloride, and H2O2 (0.0005%, pH 6.0). […] Each unit represents the capacity to degrade 1 μmol of H2O2 per minute.[81]

[4] = tested on: dHL-60 cells; test: Cellular production of HOCl, PMA-activated dHL-60 cells; assay type: cell-based, human; details: 20 μM compound, 100 nM PMA, 1 h
Description: Human promyelocytic leukemic cells (HL-60) (BCRJ, RJ, Brazil) were cultivated in RPMI with fetal bovine serum (10%), penicillin (62 μg/mL), and streptomycin (100 μg/mL) at 37 °C in 5% CO2 atmosphere. HL-60 cells were differentiated to neutrophil-like (dHL-60) by DMSO (1.25%) during 4 days.[25]
as §1

[5] = tested on: IL-1β; test: Paw tissue IL-1β level after MSU (ELISA); assay type: in vivo, male C57BL/6 mice; details: intraperitoneal pretreatment (RL6 30 mg/kg), tissue collected at 6 h
Description: The remaining part of the homogenate was treated with a solution of protease/phosphatase inhibitors (1 mM phenylmethylsulfonyl fluoride, 10 μg/mL leupeptin, and 10 μg/mL trypsin inhibitor) and centrifuged at 10,000g (10 min at 4 °C). The obtained supernatants were subjected to 1:2 dilution in PBS and subsequently used for the assessment of IL-1β and IL-6 using murine enzyme-linked immunosorbent assay kits, specifically a sandwich ELISA technique, following manufacturer’s instructions (BioLegend, CA, USA). The protein content within the samples was determined by using the Bradford method (1976). The results were quantified and expressed in pg/mg of protein (Bio-Rad, Hercules, CA, USA).[76]

[6] = 20 μM compound, 10 nM MPO, 140 mM NaCl, 5 mM taurine, 40 μM H2O2, pH 7.4, read-out: % Inhibition (at 20 μM) Chlorinating
[7] = supplementary csv copy of Table 1, read-out: % Inhibition (Chlorinating)

Sequence of Human leukocyte MPO (P05164 279-745 limits assumed): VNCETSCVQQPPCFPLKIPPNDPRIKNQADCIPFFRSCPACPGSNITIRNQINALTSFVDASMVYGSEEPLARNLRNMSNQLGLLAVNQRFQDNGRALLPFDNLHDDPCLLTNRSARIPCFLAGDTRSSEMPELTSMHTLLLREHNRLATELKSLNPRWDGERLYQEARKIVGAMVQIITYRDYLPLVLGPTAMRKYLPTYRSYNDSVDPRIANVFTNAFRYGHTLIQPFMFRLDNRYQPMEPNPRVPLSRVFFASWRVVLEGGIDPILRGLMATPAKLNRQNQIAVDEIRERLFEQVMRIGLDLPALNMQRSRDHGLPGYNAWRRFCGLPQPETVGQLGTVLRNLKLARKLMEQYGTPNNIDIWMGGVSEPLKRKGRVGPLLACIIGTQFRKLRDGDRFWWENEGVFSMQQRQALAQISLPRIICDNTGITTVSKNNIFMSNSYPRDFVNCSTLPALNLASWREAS
Sequence of Human leukocyte MPO (P05164 165-278 limits assumed): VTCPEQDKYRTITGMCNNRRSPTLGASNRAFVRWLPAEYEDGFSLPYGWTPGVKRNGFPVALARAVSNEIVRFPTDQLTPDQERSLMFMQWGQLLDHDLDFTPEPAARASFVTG

| SMILES | IC50 ([1]; 10 nM MPO, 140 mM NaCl) [nM] | inhibition at 20 µM [1, 6] [%] | chlorinating/peroxidatic activity inhibition ratio ([1]; ratio of % inhibition at 20 μM, ~1 indicates true enzyme inhibitor) | inhibition at 20 µM [1, 7] [%] | inhibition of HOCl production in peripheral blood neutrophils [2] | reduction in total peroxidase activity in hind paw tissue [3] | inhibition of HOCl production in dHL-60 cells [4] | decrease in IL-1β levels in hind paw tissue [5] | % Inhibition (at 20 μM) Chlorinating ([1]; 20 μM compound, 10 nM MPO, 140 mM NaCl, 5 mM taurine, 40 μM H2O2, pH 7.4) |
| --- | --- | --- | --- | --- | --- | --- | --- | --- | --- |
| Nc1cc2c3c(cccc3c1)C(=O)N(N)C2=O [RL6] | 270 | 86.5 ± 15.3 | ~1 | 86.5 ± 15.3 | significantly inhibited | 61.5% | significantly inhibited | 48.3% |  |
| CN1CCc2nc3sc(C(=O)Nc4cccc(C#N)c4)c(N)c3cc2C1 [RL7] | 560 | 84.9 ± 17 |  | 84.9 ± 17 | significantly inhibited | unable to decrease | significantly inhibited | unable to decrease | active against chlorinating activity only |
